Assay results as given in patent US20040116420A1 (priority 2001, published 2004).

What was measured:
[1] = target: T1, HSV-1 protease (Human herpesvirus 1, UniProt P10210); experiment: Enzymatic assay for HSV-1 protease (assembly) inhibitor, fluorescence polarization; assay type: biochemical; settings: read-out: HSV-1 Enzyme inhibition IC50
T1 construct: 6xHis (N); made in house; host or cells: baculovirus expression system
Summary of the method: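 His6-tagged HSV-1 UL26 protease, baculovirus-expressed, preincubated 30 min at RT with compound in 1 M citrate/phosphate buffer pH 7.4 with 20% glycerol and 2 mM TCEP. A biotin-HTYLQA*SERFRIK-DTAF substrate was then cleaved for 60 min at RT, stopped with avidin, and read by fluorescence polarization versus no-inhibitor control.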

[2] = system: HSV-1; experiment: Antiviral activity, HSV-1 in Vero cells, plaque method; assay type: cell-based; settings: Human alphaherpesvirus 1, 20 hours, 90% inhibition of plaque formation
Summary of the method: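 HSV-1 (50,000 pfu in 2% FBS-DMEM) was added to Vero cells and removed, then the compound was applied in 2% FBS-DMEM for 20 h at 37° C, 5% CO2. After a freeze-thaw, virus yield in the medium was titred by plaque assay. EC90 is the concentration giving 90% plaque reduction versus the compound-free control.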

[3] = system: Vero cells; experiment: Cytotoxicity, Vero cells, Alamar Blue; assay type: cell-based; settings: 25 μM, 20 hours
Summary of the method: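 Overnight-seeded Vero cells were exposed to 25 μM compound in 2% FBS-DMEM for 20 h at 37 °C, 5% CO2. Alamar Blue was then added for about 6 h. The absorbance ratio relative to compound-free control gave the living-cell ratio.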

[4] = Human plasma stability; assay type: in vitro ADME
Method: An Assay Method for Human Plasma Stability Human plasma was thawed, 200 μl each thereof was placed in each cell of a 96-well plate immediately thereafter, and 4 μl of solution of each test compound in 1 mM DMF was added thereto. A microplate reader for fluorescence absorption was used to assay changes in fluorescence, and half life was determined based on the changes.

T1 sequence (P10210 1-247): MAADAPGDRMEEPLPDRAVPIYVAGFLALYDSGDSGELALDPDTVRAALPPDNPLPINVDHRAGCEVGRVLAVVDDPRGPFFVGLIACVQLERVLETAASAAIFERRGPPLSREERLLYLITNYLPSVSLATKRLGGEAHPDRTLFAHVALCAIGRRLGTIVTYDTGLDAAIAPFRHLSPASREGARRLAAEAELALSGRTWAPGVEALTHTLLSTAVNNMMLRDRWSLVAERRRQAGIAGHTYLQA

Row | IC50 [1] [nM] | EC90 [2] [nM] | half-life at 19.6 μM [4] [h] | Compound | Cell viability (% of control) [3] [%]
1 | 1100 | 10100 | 5.13 | Cc1c(NC(=O)OC(C)(C)C)ccc2nc(NC(C)(C)C(=O)N(C)Cc3ccccn3)oc(=O)c12 [Compound No.59, {5-Methyl-2-[1-methyl-1-(methyl-pyridin-2-ylmethyl-carbamoyl)-ethylamino]-4-oxo-4H-benzo[d][1,3]oxazin-6-yl}-carbamic acid tert-butyl ester] | 106.0
2 | 200 | 7600 | 3.02 | Cc1c(NC(=O)OC(C)(C)C)ccc2nc(N[C@@H](C)C(=O)N(C)CCc3cccnc3)oc(=O)c12 [Compound No.65, (5-Methyl-2-{1S-[methyl-(2-pyridin-3-yl-ethyl)-carbamoyl]-ethylamino}-4-oxo-4H-benzo[d][1,3]oxazin-6-yl)-carbamic acid tert-butyl ester] | 104.0
3 | 500 | 5900 | 1.47 | Cc1c(NC(=O)OC(C)(C)C)ccc2nc(N[C@@H](Cc3ccccc3)C(=O)NCc3ccccn3)oc(=O)c12 [Compound No.20, (5-Methyl-4-oxo-{2-2-phenyl-1S-[(pyridin-2-ylmethyl)-carbamoyl]-ethylamino}-4H-benzo[d][1,3]oxazin-6-yl)-carbamic Acid Tert-Butyl Ester] | 101.0
4 | 1700 | 4900 | – | Cc1c(NC(=O)OC(C)(C)C)ccc2nc(N[C@@H](CC(C)C)C(=O)N(C)CCc3ccccn3)oc(=O)c12 [Compound No.46, (5-Methyl-2-{3-methyl-1S-[methyl-(2-pyridin-2-yl-ethyl)-carbamoyl]-butylamino}-4-oxo-4H-benzo[d][1,3]oxazin-6-yl)-carbamic acid tert-butyl ester] | 80.1
5 | 1000 | 6000 | – | Cc1c(NC(=O)OC(C)(C)C)ccc2nc(N(C)[C@@H](Cc3ccccc3)C(=O)NCc3cccnc3)oc(=O)c12 [Compound No.79, [5-Methyl-2-(methyl-{2-phenyl-1S-[(pyridin-3-ylmethyl)-carbamoyl]-ethyl}-amino)-4-oxo-4H-benzo[d][1,3]oxazin-6-yl]-carbamic acid tert-butyl ester] | 38.5
6 | 1300 | > 12500 | – | Cc1c(NC(=O)c2cccc(C(Cl)Cl)c2)ccc2nc(NC(C)(C)C(=O)N(C)CCc3ccccn3)oc(=O)c12 [Compound No.183, 3-Dichloromethyl-N-(5-methyl-2-{1-methyl-1-[methyl-(2-pyridin-2-yl-ethyl)-carbamoyl]-ethylamino}-4-oxo-4H-benzo[d][1,3]oxazin-6-yl)-benzamide] | 101.0

The remaining lines, values behind:

Row | Compound | IC50 [1] [nM] | EC90 [2] [nM] | half-life at 19.6 μM [4] [h] | Cell viability (% of control) [3] [%]
7 | Cc1c(NC(=O)OC(C)(C)C)ccc2nc(N[C@@H](CCc3ccccc3)C(=O)N(C)Cc3ccccn3)oc(=O)c12 [Compound No.23, {5-Methyl-2-[1S-(methyl-pyridin-2-ylmethyl-carbamoyl)-3-phenyl-propylamino]-4-oxo-4H-benzo[d][1,3]oxazin-6-yl}-carbamic Acid Tert-Butyl Ester] | 700 | < 3200 | 9.92 | 52.0
8 | Cc1c(NC(=O)OC(C)(C)C)ccc2nc(NC(C)(C)C(=O)N(C)CCc3cccnc3)oc(=O)c12 [Compound No.19, (5-Methyl-2-{1-methyl-1-[methyl-(2-pyridin-3-yl-ethyl)-carbamoyl]-ethylamino}-4-oxo-4H-benzo[d][1,3]oxazin-6-yl)-carbamic Acid Tert-Butyl Ester] | 300 | 6200 | 6.2 | 106.0
9 | Cc1c(NC(=O)OC(C)(C)C)ccc2nc(N[C@@H](C)C(=O)N(C)Cc3ccccn3)oc(=O)c12 [Compound No.58, {5-Methyl-2-[1S-(methyl-pyridin-2-ylmethyl-carbamoyl)-ethylamino]-4-oxo-4H-benzo[d][1,3]oxazin-6-yl}-carbamic acid tert-butyl ester] | 1700 | 10800 | 8.85 | 105.0
10 | COc1ccc(CC(Nc2nc3ccc(NC(=O)OC(C)(C)C)c(C)c3c(=O)o2)C(=O)NCc2ccccn2)cc1 (stereo not drawn) [compound 230, (2-{2-(4-Methoxy-phenyl)-1-[(pyridin-2-ylmethyl)-carbamoyl]-ethylamino}-5-methyl-4-oxo-4H-benzo[d][1,3]oxazin-6-yl)-carbamic acid tert-butyl ester, reference compound] | 400 | 6100 | 0.45 | –
11 | Cc1c(NC(=O)OC(C)(C)C)ccc2nc(NC3(C(=O)N(C)Cc4cccnc4)CCCCC3)oc(=O)c12 [Compound No.120, {5-Methyl-2-[1-(methyl-pyridin-3-ylmethyl-carbamoyl)-cyclohexylamino]-4-oxo-4H-benzo[d][1,3]oxazin-6-yl}-carbamic acid tert-butyl ester] | 1200 | 10000 | 14.9 | –
12 | Cc1c(NC(=O)c2ccc(CCl)cc2)ccc2nc(NC(C)(C)C(=O)N(C)CCc3ccccn3)oc(=O)c12 [Compound No.171, 4-Chloromethyl-N-(5-methyl-2-{1-methyl-1-[methyl-(2-pyridin-2-yl-ethyl)-carbamoyl]-ethylamino}-4-oxo-4H-benzo[d][1,3]oxazin-6-yl)-benzamide] | 2100 | 10200 | – | 16.1
13 | Cc1c(NC(=O)c2ccco2)ccc2nc(NC(C)(C)C(=O)N(C)CCc3ccccn3)oc(=O)c12 [Compound No.139, Furan-2-carboxylic acid (5-methyl-2-{1-methyl-1-[methyl-(2-pyridin-2-yl-ethyl)-carbamoyl]-ethylamino}-4-oxo-4H-benzo[d][1,3]oxazin-6-yl)-amide] | 1400 | > 12500 | – | 90.7
14 | Cc1c(NC(=O)c2cccc(CCl)c2)ccc2nc(NC(C)(C)C(=O)N(C)CCc3ccccn3)oc(=O)c12 [Compound No.170, 3-Chloromethyl-N-(5-methyl-2-{1-methyl-1-[methyl-(2-pyridin-2-yl-ethyl)-carbamoyl]-ethylamino}-4-oxo-4H-benzo [d][1,3]oxazin-6-yl)-benzamide] | 1500 | 7800 | – | 13.6
15 | Cc1c(NC(=O)c2ccccc2Cl)ccc2nc(NC(C)(C)C(=O)N(C)CCc3ccccn3)oc(=O)c12 [compound 151, 2-Chloro-N-(5-methyl-2-{1-methyl-1-[methyl-(2-pyridin-2-yl-ethyl)-carbamoyl]-ethylamino}-4-oxo-4H-benzo[d][1,3]oxazin-6-yl)-benzamide] | 1400 | 7600 | – | 74.2
16 | Cc1c(NC(=O)OC(C)(C)C)ccc2nc(N[C@@H](CC3CCCCC3)C(=O)N(C)Cc3ccccn3)oc(=O)c12 [Compound No.63, {2-[2-Cyclohexyl-1S-(methyl-pyridin-2-ylmethyl-carbamoyl)-ethylamino]-5-methyl-4-oxo-4H-benzo[d][1,3]oxazin-6-yl}-carbamic acid tert-butyl ester] | 1200 | < 3200 | – | 60.1
